Literature values, collected in patent US20220226232A1, “Dental formulation comprising xylitol and propolis” (SERVIDENCE INC., priority 2021, published 2022).

Conditions: oral exposition

OC[C@@H](O)[C@H](O)[C@@H](O)CO [xylitol]
prevention of otitis: 20%
